Tests used:
KRAS G12D [1] = target: T1, KRAS G12D (Homo sapiens (Human), UniProt P01116, G12D); assay: KRAS G12D RAF Disruption Assay (HTRF); format: biochemical; settings: recombinant GMPPNP-loaded KRAS G12D (5 nM), GST-RAF1 RBD (9 nM), HTRF signal
Experimental: Recombinant GMPPNP-loaded KRAS G12D (5 nM) was treated with compound at room temperature for 20 minutes in assay buffer (50 mM Tris pH 7.5, 100 mM NaCl, 1 mM MgCl2, 1 mM DTT, 100 ug/mL BSA).

KRAS G12D [2] = target: T1, KRAS G12D; assay: KRAS G12D Nucleotide Exchange Assay (HTRF); format: biochemical; settings: recombinant GDP-loaded KRAS G12D (20 nM), BIODIPY-labeled GDP (400 nM), recombinant SOS (10 nM), HTRF signal
Experimental: Recombinant GDP-loaded KRAS G12D (20 nM) was treated with compound at room temperature for 20 minutes in assay buffer (10 mM Hepes pH 7.4, 150 mM NaCl, 5 mM MgCl2, 0.0025% Igepal-CA630, 0.05% BSA, 1 mM DTT, 0.5 nM SA-Tb). BIODIPY-labeled GDP (400 nM) and recombinant SOS (10 nM) were added, and the reaction was incubated for 30 minutes.

T1 sequence (P01116-2 other isoform, or with tags, fused parts or gaps G12D): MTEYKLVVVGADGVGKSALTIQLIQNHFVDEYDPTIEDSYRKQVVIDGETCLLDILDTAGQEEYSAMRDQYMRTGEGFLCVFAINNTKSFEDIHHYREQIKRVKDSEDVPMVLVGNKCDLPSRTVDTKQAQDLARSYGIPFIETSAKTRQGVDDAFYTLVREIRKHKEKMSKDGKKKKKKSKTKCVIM

| SMILES | KRASG12D RAF Disruption Assay (IC50, µM) (KRAS G12D [1]) | KRASG12D Nucleotide Exchange Assay (IC50, µM) (KRAS G12D [2]) |
| --- | --- | --- |
| C#Cc1c(F)ccc2cc(O)cc(-c3ccc4c(N5CC[C@H]6CC[C@@H](C5)N6)nc(OCC5(CN(C)C)CC5)nc4c3F)c12 [Example 11-1, 4-{4-[(1S,6R)-3,9-diazabicyclo[4.2.1]nonan-3-yl]-2-({1-[(dimethylamino)methyl]cyclopropyl}methoxy)-8-fluoroquinazolin-7-yl}-5-ethynyl-6-fluoronaphthalen-2-ol] | 2.7 µM | 0.06 µM |
| CCc1cccc2cc(O)cc(-c3ccc4c(N5CC[C@H]6CC[C@@H](C5)N6)nc(OC[C@]56CCC[C@H]5N(C)CCC6)nc4c3F)c12 [Example 9-3, 4-(2-{[(4aS,7aR)-1-methyl-octahydro-1H-cyclopenta[b]pyridin-4a-yl]methoxy}-4-[(1S,6R)-3,9-diazabicyclo[4.2.1]nonan-3-yl]-8-fluoroquinazolin-7-yl)-5-ethylnaphthalen-2-ol] | 3.0 µM | 0.05 µM |
| Cc1cc(N)nc(-c2c(Cl)cc3c(N4CC[C@H]5CC[C@@H](C4)N5)nc(OCC4(CN5CCCC(F)C5)CC4)nc3c2F)c1C(F)(F)F (stereo partly drawn) [Example 10-9, 6-{6-chloro-4-[(1S,6R)-3,9-diazabicyclo[4.2.1]nonan-3-yl]-8-fluoro-2-({1-[(3-fluoropiperidin-1-yl)methyl]cyclopropyl}methoxy)quinazolin-7-yl}-4-methyl-5-(trifluoromethyl)pyridin-2-amine] | 51.0 µM | 0.41 µM |
| CCc1cccc2cc(O)cc(-c3c(Cl)cc4c(N5CC[C@H]6CC[C@@H](C5)N6)nc(OC[C@@]56CCCN5C[C@H](F)C6)nc4c3F)c12 (single isomer, unassigned) [Example 8-1] | 5.7 µM | 0.04 µM |
| CO[C@@H]1C[C@@H](COc2nc(N3CC[C@H]4CC[C@@H](C3)N4)c3cc(Cl)c(-c4nc(N)cc(C)c4C(F)(F)F)c(F)c3n2)N(C)C1 [Example 4-4, 6-{6-chloro-4-[(1S,6R)-3,9-diazabicyclo[4.2.1]nonan-3-yl]-8-fluoro-2-{[(2S,4R)-4-methoxy-1-methylpyrrolidin-2-yl]methoxy}quinazolin-7-yl}-4-methyl-5-(trifluoromethyl)pyridin-2-amine] | 1.81 µM | 0.010 µM |
| Oc1cc(-c2ccc3c(N4CC[C@H]5CC[C@@H](C4)N5)nc(OC[C@@]45CCCN4C[C@H](F)C5)nc3c2F)c2ccccc2c1 [Example 11-7, 4-(2-{[(2R,7aS)-2-fluoro-hexahydro-1H-pyrrolizin-7a-yl]methoxy}-4-[(1S,6R)-3,9-diazabicyclo[4.2.1]nonan-3-yl]-8-fluoroquinazolin-7-yl)naphthalen-2-ol] | 5.1 µM | 0.06 µM |
| Cc1cc(N)nc(-c2c(Cl)cc3c(N4CC[C@H]5CC[C@@H](C4)N5)nc(OC[C@@]45C[C@@H](F)CN4CC4(CC4)C5)nc3c2F)c1C(F)(F)F [Example 13-1, 6-(2-{[(6′R, 7′aR)-6′-fluoro-hexahydrospiro[cyclopropane-1,2′-pyrrolizine]-7′a-yl]methoxy}-6-chloro-4-[(1S,6R)-3,9-diazabicyclo[4.2.1]nonan-3-yl]-8-fluoroquinazolin-7-yl)-4-methyl-5-(trifluoromethyl)pyridin-2-amine] | 0.22 µM | 0.01 µM |
| Nc1cc2cccc(F)c2c(-c2ccc3c(N4CC[C@H]5CC[C@@H](C4)N5)nc(OC[C@@]45CCCN4C[C@H](F)C5)nc3c2F)n1 [Example 11-4, 1-(2-{[(2R,7aS)-2-fluoro-hexahydro-1H-pyrrolizin-7a-yl]methoxy}-4-[(1S,6R)-3,9-diazabicyclo[4.2.1]nonan-3-yl]-8-fluoroquinazolin-7-yl)-8-fluoroisoquinolin-3-amine] | 43.1 µM | 2.2 µM |
| CN1CCC[C@@]2(COc3nc(N4CC[C@H]5CC[C@@H](C4)N5)c4ccc(-c5cc(O)cc6cccc(F)c56)c(F)c4n3)CCC[C@@H]12 [Example 9-2, 4-(2-{[(4aS,7aR)-1-methyl-octahydro-1H-cyclopenta[b]pyridin-4a-yl]methoxy}-4-[(1S,6R)-3,9-diazabicyclo[4.2.1]nonan-3-yl]-8-fluoroquinazolin-7-yl)-5-fluoronaphthalen-2-ol] | 2.0 µM | 0.03 µM |
| Cc1cc(N)nc(-c2c(Cl)cc3c(N4CC[C@H]5CC[C@@H](C4)N5)nc(OC[C@]45CCCN4C[C@H](F)C5)nc3c2F)c1C(F)(F)F [Example 4-3, 6-(2-{[(2R,7aR)-2-fluoro-hexahydro-1H-pyrrolizin-7a-yl]methoxy}-6-chloro-4-[(1S,6R)-3,9-diazabicyclo[4.2.1]nonan-3-yl]-8-fluoroquinazolin-7-yl)-4-methyl-5-(trifluoromethyl)pyridin-2-amine] | 0.52 µM | 0.02 µM |
| Cc1cc(N)nc(-c2c(Cl)cc3c(N4CC[C@H]5CC[C@@H](C4)N5)nc(OCC4(CN5CCCC(F)C5)CC4)nc3c2F)c1C(F)(F)F (stereo partly drawn) [Example 10-3, 6-{6-chloro-4-[(1S,6R)-3,9-diazabicyclo[4.2.1]nonan-3-yl]-8-fluoro-2-({1-[(3-fluoropiperidin-1-yl)methyl]cyclopropyl}methoxy)quinazolin-7-yl}-4-methyl-5-(trifluoromethyl)pyridin-2-amine] | 2.7 µM | 0.01 µM |
| Cc1cc(N)nc(-c2c(Cl)cc3c(N4CC[C@H]5CC[C@@H](C4)N5)nc(OC[C@@]45CCCN4C[C@@H](OC(F)F)C5)nc3c2F)c1C(F)(F)F (single isomer, unassigned) [Example 10-5] | 81 µM | 0.9 µM |
| Cc1cc(N)nc(-c2ccc3c(N4CC[C@H]5CC[C@@H](C4)N5)nc(OC[C@]45CCCN4C[C@H](F)C5)nc3c2F)c1C(F)(F)F [Example 12-2, 6-(2-{[(2R,7aR)-2-fluoro-hexahydro-1H-pyrrolizin-7a-yl]methoxy}-4-[(1S,6R)-3,9-diazabicyclo[4.2.1]nonan-3-yl]-8-fluoroquinazolin-7-yl)-4-methyl-5-(trifluoromethyl)pyridin-2-amine] | 80.0 µM | 0.33 µM |
| C#Cc1c(F)ccc2cc(O)cc(-c3ccc4c(N5CC[C@H]6CC[C@@H](C5)N6)nc(OC[C@]56CCC[C@H]5N(C)CCC6)nc4c3F)c12 [Example 9-4, 4-(2-{[(4aS,7aR)-1-methyl-octahydro-1H-cyclopenta[b]pyridin-4a-yl]methoxy}-4-[(1S,6R)-3,9-diazabicyclo[4.2.1]nonan-3-yl]-8-fluoroquinazolin-7-yl)-5-ethynyl-6-fluoronaphthalen-2-ol] | 0.2 µM | 0.02 µM |
| CN1CCC[C@H]1COc1nc(N2CCN3CCC2CC3)c2cc(Cl)c(-c3cc(O)cc4ccccc34)c(F)c2n1 [Example 1-2, 4-(6-chloro-4-{1,4-diazabicyclo[3.2.2]nonan-4-yl}-8-fluoro-2-{[(2S)-1-methylpyrrolidin-2-yl]methoxy}quinazolin-7-yl)naphthalen-2-ol] | >100 µM | 13.66 µM |
| Cc1cc(N)nc(-c2c(Cl)cc3c(N4CC[C@H]5CC[C@@H](C4)N5)nc(OCC4(CN5C6CCC5COC6)CC4)nc3c2F)c1C(F)(F)F [Example 10-2, 6-{6-chloro-4-[(1S,6R)-3,9-diazabicyclo[4.2.1]nonan-3-yl]-8-fluoro-2-{[1-({3-oxa-8-azabicyclo[3.2.1]octan-8-yl}methyl)cyclopropyl]methoxy}quinazolin-7-yl}-4-methyl-5-(trifluoromethyl)pyridin-2-amine] | 1.0 µM | 0.006 µM |
| Oc1cc(-c2c(Cl)cc3c(N4CC[C@H]5CC[C@@H](C4)N5)nc(OC[C@]45CCCN4C[C@@H](F)C5)nc3c2F)c2ccccc2c1 (single isomer, unassigned) [Example 8-10] | 14.2 µM | 0.50 µM |
| CCc1cccc2cc(O)cc(-c3c(Cl)cc4c(N5CC[C@H]6CC[C@@H](C5)N6)nc(OC[C@]56CCCN5C[C@@H](F)C6)nc4c3F)c12 (single isomer, unassigned) [Example 8-3] | 17.3 µM | 0.07 µM |
| Oc1cc(-c2c(Cl)cc3c(N4CC[C@H]5CC[C@@H](C4)N5)nc(OC[C@]45CCCN4C[C@H](F)C5)nc3c2F)c2ccccc2c1 [Example 7, 4-(2-{[(2R,7aR)-2-fluoro-hexahydro-1H-pyrrolizin-7a-yl]methoxy}-6-chloro-4-[(1S,6R)-3,9-diazabicyclo[4.2.1]nonan-3-yl]-8-fluoroquinazolin-7-yl)naphthalen-2-ol] | 0.48 µM | <0.002 µM |
| Cc1cc(N)nc(-c2c(Cl)cc3c(N4CC[C@H]5CC[C@@H](C4)N5)nc(OCC4(CN(C)C)CC4)nc3c2F)c1C(F)(F)F [Example 10-1, 6-{6-chloro-4-[(1S,6R)-3,9-diazabicyclo[4.2.1]nonan-3-yl]-2-({1-[(dimethylamino)methyl]cyclopropyl}methoxy)-8-fluoroquinazolin-7-yl}-4-methyl-5-(trifluoromethyl)pyridin-2-amine] | 1.0 µM | 0.007 µM |

Reference: US20240217982A1, “KRAS INHIBITORS” (Bristol-Myers Squibb Company, priority 2021, published 2024)
